Results reported in patent US8940716B2, “Bicyclic heteroaryl compounds as GPR119 modulators” (Bristol-Myers Squibb Company, priority 2010, dated 2015).

Each compound was assayed against T1, human-mouse chimeric GPR119 (Homo sapiens, UniProt Q8TDV5, A235T/C313R/C323Y/E253K/F304I/F307L/G211A/G245S/H255C/K284R/L224V/L258Q/L288Q/L301F/P218V/P318T/Q252H/R262K/S214P/S219N/S228A/S309P/S322A/T217S/T239S/V227I/V300F) (assay: Tet-inducible cAMP assay). Conditions: not given.
T1 construct: the first 198 amino acids of human GPR119; the C-terminal 137 amino acids of the mouse receptor; expressed in transfected cells
T1 sequence (Q8TDV5 with tags, fused parts or gaps G211A/S214P/T217S/P218V/S219N/L224V/V227I/S228A/A235T/T239S/G245S/Q252H/E253K/H255C/L258Q/R262K/K284R/L288Q/V300F/L301F/F304I/F307L/S309P/C313R/P318T/S322A/C323Y): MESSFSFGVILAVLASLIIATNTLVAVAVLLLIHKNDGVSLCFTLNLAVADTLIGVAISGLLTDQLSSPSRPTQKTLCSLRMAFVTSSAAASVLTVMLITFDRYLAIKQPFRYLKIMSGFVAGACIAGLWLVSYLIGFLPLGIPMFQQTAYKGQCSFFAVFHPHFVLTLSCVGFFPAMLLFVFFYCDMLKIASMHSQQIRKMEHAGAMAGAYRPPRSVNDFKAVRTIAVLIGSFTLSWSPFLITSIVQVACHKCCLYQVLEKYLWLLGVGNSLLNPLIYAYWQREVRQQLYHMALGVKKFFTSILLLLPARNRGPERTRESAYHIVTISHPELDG
Assay type: cell-based
Experimental: The in vitro modulation of recombinant human GPR119 was determined as follows.
A human-mouse chimeric GPR119 expression construct encoding 3 copies of the FLAG epitope tag, the first 198 amino acids of human GPR119 and the C-terminal 137 amino acids of the mouse receptor was cloned into a tetracycline inducible vector pcDNA5/FRT/TO (Invitrogen #V6520-20), which includes a hygromycin-resistance marker. Tightly controlled receptor expression was achieved by stable integration of this construct into the genome of a specific host cell line, Flp-In-T-Rex-HEK293, expressing the tetracycline repressor (Invitrogen). Once a stable hygromycin-resistant cell line was generated, the cells were maintained at 37° C. in a humidified 5% CO2 atmosphere in culture medium consisting of Dulbecco's modified Eagle's medium (DMEM; Invitrogen #11960) supplemented with 2 mM L-glutamine, 10% fetal bovine serum, 200 μg/ml hygromycin B, and 15 μg/ml blasticidin.
Forty-eight hours prior to the cAMP accumulation assay, cells stably expressing the chimeric human/mouse GPR119 construct were seeded at a density of 4×10^3 cells/well in 384 well poly-D-lysine coated solid white plates (BD #35-6661) and grown at 37° C. in a humidified 5% CO2 atmosphere in culture medium supplemented with 1 μg/ml tetracycline to induce expression of the receptor. On the day of the assay, medium was removed and cells were incubated for 50 min. at 37° C. in a humidified 5% CO2 atmosphere in 20 μl/well of assay buffer (phosphate-buffered saline with Ca^2+ and Mg^2+, 12 mM glucose, 0.1 mM isobutyl-methyl-xanthine, 0.1% fatty-acid free bovine serum albumin) with the desired concentration of compound added from a concentrated stock dissolved in dimethyl sulfoxide (DMSO) to give a final concentration of 1% DMSO in the assay. cAMP accumulation was measured using the CisBio homogeneous time resolved fluorescence (HTRF) assay kit (#62AM2PEC) following the manufacturer's protocol. Briefly, 10 μl each of the cAMP-HTRF fluorescence detection reagents were added to each well, and the samples were incubated for 40 min. at room temperature. Fluorescence was excited at 320 nm and measured at 665 and 620 nm using the Envision instrument (Perkin Elmer), the fluorescence ratio of 665/620 was calculated and converted to nanomolar concentrations of cAMP in each well by interpolation from a cAMP standard curve. The concentration-response curves and EC50 values were calculated with a four parameter logistic curve fit equation utilizing Excel/XLfit software (Microsoft and IDBS). The EC50 value was calculated as the concentration of agonist which increased the cAMP concentration to a value halfway between the baseline and the maximum.
Compounds of the present invention were tested in the Tet-inducible cAMP assay described immediately above and the results shown in Table 2 below were obtained.
Work on `CCCc1cnc(N2CCC(Oc3nc4ccc(C5=CCN(S(=O)(=O)CCCCCCP(=O)(OC)OC)CC5)cc4s3)CC2)nc1` [Example 177] yielded an EC50 of 9.7 nM.

Same assay, conditions: cAMP accumulation (HTRF), Flp-In-T-Rex-HEK293 cells expressing chimeric human/mouse GPR119, 50 min incubation; read-out: GPR119 EC50
With `CCCc1cnc(N2CCC(Oc3nc4ccc(C5=CCN(S(=O)(=O)C[C@@H](C)CO)CC5)cc4s3)CC2)nc1` (single isomer, unassigned) [Example 19] the EC50 was 2.3 nM. Compound `CCCc1cnc(N2CCC(Oc3nc4ccc(C5=CCN(S(=O)(=O)CCCO)CC5)cc4s3)CC2)nc1` [Example 3, 3-(4-(2-(1-(5-Propylpyrimidin-2-yl)piperidin-4-yloxy)benzo[d]thiazol-6-yl)-5,6-dihydropyridin-1(2H)-ylsulfonyl)propan-1-ol] has an EC50 of 11.1 nM. With `CCCc1cnc(N2CCC(Oc3nc4ccc(C5=CCN(S(=O)(=O)CCN6CC(O)C6)CC5)cc4s3)CC2)nc1` [Example 7, 1-(2-(4-(2-(1-(5-Propylpyrimidin-2-yl)piperidin-4-yloxy)benzo[d]thiazol-6-yl)-5,6-dihydropyridin-1(2H)-ylsulfonyl)ethyl)azetidin-3-ol] the EC50 was 33.9 nM. In the case of `CCCS(=O)(=O)N1CC=C(c2ccc3nc(OC4CCN(S(=O)(=O)C5CC5)CC4)sc3c2)CC1` [Example 22, 2-(1-(Cyclopropylsulfonyl)piperidin-4-yloxy)-6-(1-(propylsulfonyl)-1,2,3,6-tetrahydropyridin-4-yl)benzo[d]thiazole], the EC50 is reported as 29.1 nM. For `CCCc1cnc(N2CCC(Oc3nc4ccc(C5=CCN(S(=O)(=O)CCCCC[N+](CC)(CC)CC)CC5)cc4s3)CC2)nc1` [Example 32, N,N,N-triethyl-5-(4-(2-(1-(5-propylpyrimidin-2-yl)piperidin-4-yloxy)benzo[d]thiazol-6-yl)-5,6-dihydropyridin-1(2H)-ylsulfonyl)pentan-1-aminium bromide], the EC50 was 9.7 nM. Compound `CCCc1cnc(N2CCC(Oc3nc4ccc(C5=CCN(S(=O)(=O)CCC(C)(C)OC(=O)CCC(=O)O)CC5)cc4s3)CC2)nc1` [Example 39, 4-(2-methyl-4-(4-(2-(1-(5-Propylpyrimidin-2-yl)piperidin-4-yloxy)benzo[d]thiazol-6-yl)-5,6-dihydropyridin-1(2H)-ylsulfonyl)butan-2-yloxy)-4-oxobutanoic acid] has an EC50 of 25 nM. Work on `CC(C)c1noc(N2CCC(Oc3nc4ccc(C5=CCN(S(=O)(=O)CCC(C)(C)O)CC5)cc4s3)CC2)n1` [Example 44, 4-(4-(2-(1-(3-Isopropyl-1,2,4-oxadiazol-5-yl)piperidin-4-yloxy)benzo[d]thiazol-6-yl)-5,6-dihydropyridin-1(2H)-ylsulfonyl)-2-methylbutan-2-ol] yielded an EC50 of 7.2 nM. With `CCCc1cnc(N2CCC(Oc3nc4ccc(N5CCC(C(=O)N6CCCC6)CC5)cc4s3)CC2)nc1` [Example 45, (1-(2-(1-(5-Propylpyrimidin-2-yl)piperidin-4-yloxy)benzo[d]thiazol-6-yl)piperidin-4-yl)(pyrrolidin-1-yl)methanone] the EC50 was 463 nM. `CN(C)S(=O)(=O)N1CC=C(c2ccc3nc(OC4CCN(c5ncc(F)cn5)CC4)sc3c2)CC1` [Example 49, 4-(2-((1-(5-Fluoropyrimidin-2-yl)piperidin-4-yl)oxy)benzo[d]thiazol-6-yl)-N,N-dimethyl-5,6-dihydropyridine-1(2H)-sulfonamide] gave an EC50 of 7.5 nM. Work on `CCCc1cnc(N2CCC(Nc3nc4ccc(C5=CCN(S(=O)(=O)CCC)CC5)cc4s3)CC2)nc1` [Example 53] yielded an EC50 of 283 nM. In the case of `CCCc1cnc(N2CCC(Nc3nc4ccc(C5=CCN(S(C)(=O)=O)CC5)cc4s3)CC2)nc1` [Example 54], the EC50 is reported as 450 nM. With `CCCc1cnc(N2CCC(Oc3nc4ccc(C5=CCN(c6nc(C)cs6)CC5)cc4s3)CC2)nc1` [Example 60] the EC50 was 767 nM. Work on `CCCc1cnc(N2CCC(Oc3nc4ccc(C5=CCN(c6ncc(C)s6)CC5)cc4s3)CC2)nc1` [Example 61] yielded an EC50 of 547 nM. For `CCCc1cnc(N2CCC(Oc3nc4ccc(C5=CCN(C(=O)CC(C)C)CC5)cc4s3)CC2)nc1` [Example 63], the EC50 was 292 nM. For `CCCc1cnc(N2CCC(Oc3nc4ccc(C5=CCN(C(=O)c6csnn6)CC5)cc4s3)CC2)nc1` [Example 73], the EC50 was 788 nM. `CCCc1cnc(N2CCC(Oc3nc4ccc(C5=CCN(S(=O)(=O)c6cccc(C(=O)O)c6)CC5)cc4s3)CC2)nc1` [Example 79] was tested, and the EC50 was 713 nM. `CCCCOC(=O)N1CC=C(c2ccc3nc(OC4CCN(c5ncc(CCC)cn5)CC4)sc3c2)CC1` [Example 81] showed an EC50 of 142 nM. Compound `CCCc1cnc(N2CC[C@@H](Oc3nc4ccc(C5=CCN(S(C)(=O)=O)CC5)cc4s3)C2)nc1` [Example 84] has an EC50 of 953 nM. For `CCCS(=O)(=O)N1CC=C(c2ccc3nc(OC4CCN(C(C)=O)CC4)sc3c2)CC1` [Example 92], the EC50 was 839 nM. For `CCCS(=O)(=O)N1CC=C(c2ccc3nc(OC4CCN(c5nnc(C)s5)CC4)sc3c2)CC1` [Example 107], the EC50 was 21.5 nM. With `CCCS(=O)(=O)N1CC=C(c2ccc3nc(OC4CCN(C(=O)c5csnn5)CC4)sc3c2)CC1` [Example 109] the EC50 was 37 nM. `CCCS(=O)(=O)N1CC=C(c2ccc3nc(OC4CCN(S(C)(=O)=O)CC4)sc3c2)CC1` [Example 111] was tested, and the EC50 was 228 nM. Compound `CCCc1cnc(N2CCC(Oc3nc4ccc(C5=CCN(S(=O)(=O)CCCC(C)(C)O)CC5)cc4s3)CC2)nc1` [Example 114] has an EC50 of 4.4 nM. Work on `CCCc1cnc(N2CC[C@H](Oc3nc4ccc(C5=CCN(S(=O)(=O)CCC)CC5)cc4s3)C2)nc1` [Example 115] yielded an EC50 of 28.4 nM. In the case of `CCCc1cnc(N2CC[C@H](Oc3nc4ccc(C5=CCN(S(C)(=O)=O)CC5)cc4s3)C2)nc1` [Example 116], the EC50 is reported as 22.1 nM. In the case of `CC(C)(O)CCS(=O)(=O)N1CC=C(c2ccc3nc(OC4CCN(c5ncc(Cl)cn5)CC4)sc3c2)CC1` [Example 118], the EC50 is reported as 3.6 nM. `CCCS(=O)(=O)N1CC=C(c2ccc3nc(OCC4[C@H]5CN(Cc6ccccc6)C[C@@H]45)sc3c2)CC1` (stereo partly shown) [Example 127] was tested, and the EC50 was 29 nM. In the case of `CCCc1cnc(N2CCC(Oc3nc4ccc(C5=CCN(S(=O)(=O)CCC6(O)CC6)CC5)cc4s3)CC2)nc1` [Example 131], the EC50 is reported as 5 nM. In the case of `CCCc1cnc(N2CCN(c3nc4ccc(C5=CCN(S(=O)(=O)CC(C)C)CC5)cc4s3)CC2)nc1` [Example 133], the EC50 is reported as 169 nM. With `CCCc1cnc(N2CCC(Oc3nc4ccc(C5=CCN(S(=O)(=O)CCN6CCCC6)CC5)cc4s3)CC2)nc1` [Example 134] the EC50 was 55.6 nM. Work on `CCCc1cnc(N2CCC(Cc3nc4ccc(C5=CCN(S(=O)(=O)CCC(C)(C)O)CC5)cc4o3)CC2)nc1` [Example 141] yielded an EC50 of 9.5 nM. For `CCCc1cnc(N2CCC(Cc3nc4ccc(N5CCN(S(=O)(=O)CCC(=O)OC)CC5)cc4o3)CC2)nc1` [Example 144], the EC50 was 675 nM. For `CCCc1cnc(N2CCC(Cc3nc4ccc(C5CCN(S(=O)(=O)CCC)CC5)cc4o3)CC2)nc1` [Example 147], the EC50 was 49.3 nM. `CC(C)(O)CCS(=O)(=O)N1CC=C(c2ccc3nc(OC4CCN(c5nc6ccccc6s5)CC4)sc3c2)CC1` [Example 168] showed an EC50 of 3 nM. `CCCNC(=O)N1CC=C(c2ccc3nc(OC4CCN(c5ncc(CCC)cn5)CC4)sc3c2)CC1` [Example 194] gave an EC50 of 378 nM. In the case of `CC(C)(O)CCS(=O)(=O)N1CC=C(c2ccc3nc(OC4CCN(S(=O)(=O)CC(F)(F)F)CC4)sc3c2)CC1` [Example 205], the EC50 is reported as 169 nM. With `CC(C)(O)CCS(=O)(=O)N1CCN(c2ccc3nc(OC4CCN(c5ncc(F)cn5)CC4)sc3c2)CC1` [Example 216] the EC50 was 8.3 nM. Work on `O=S(=O)(CCCO)N1CCN(c2ccc3nc(OC4CCN(c5ncc(F)cn5)CC4)sc3c2)CC1` [Example 221] yielded an EC50 of 13.9 nM. With `CCCc1cnc(N2CCC(Oc3nc4ccc(C5=CCN(S(=O)(=O)CCCC(=O)N(CC)CC)CC5)cc4s3)CC2)nc1` [Example 231] the EC50 was 2.3 nM.
